Experimental data: PubChem BioAssay AID1996
In brackets after ≈: the same amount, converted by molar mass.

Details: buffer; pH 7.4; 200.0 µM

solubility kinetic [µg/mL]	Structure (SMILES)
> 57.2	Cc1cc(C(=O)OCC(=O)NCCN2C(=O)CSC2=O)ccc1[N+](=O)[O-]
> 48.5	CCOc1ccc(NC(=S)NCCCN2CCOCC2)cc1
> 35.1	COc1ccccc1N1C(=O)C(=O)N(C)C1=O
42.9 (≈ 142 µM)	O=C(O)CSCC(=O)N(c1ccccc1)c1ccccc1
< 0.6	CC(=O)C(c1ccccc1)C(c1ccccc1)C(C)[N+](=O)[O-] (configuration not stated)
> 31.1	Cl.N=C(N=C(N)N)N1CCOCC1
57.3 (≈ 137 µM)	O=C(OCCN1CCN(C2=NS(=O)(=O)c3ccccc32)CC1)c1ccccc1F
> 45.8	Cc1csc(NC(=O)C2CC(=O)N(Cc3ccco3)C2)n1 (configuration not stated)
15 (≈ 36.1 µM)	COc1cccc(C(=O)Nc2ccccc2N2CCN(C(=O)c3ccccc3)CC2)c1
> 20.3	CC(=O)Nc1ccccc1
> 50	Cc1nc(NC(=O)CCN2C(=O)C3CC=CCC3C2=O)sc1C (configuration not stated)
> 47.5	COc1ccc(CCNC(=O)CCNC(=O)c2ccco2)cc1
< 0.4	Cc1ccc(S(=O)(=O)N2CCN(c3cccc(C)c3)CC2)cc1
> 39.3	Cc1ccc(/C=C/C(=O)N2CCCC(C(N)=O)C2)o1 (configuration not stated)
11.7 (≈ 38.5 µM)	Cc1ccc(NC(=O)CNC(=O)c2cccc(Cl)c2)nc1
> 48.8	O=C(NC1CC(=O)c2sccc21)c1cccc(C(F)(F)F)c1 (configuration not stated)
31.8 (≈ 133 µM)	CN1C(=O)c2ccccc2C(O)c2ccccc21 (configuration not stated)
> 44.9	O=C(CCCOc1ccccc1)NNC(=O)c1ccncc1
> 46.7	Cc1ccc(C(=O)NCCCNC(=O)c2ccc(C)nc2)cc1
> 57	Clc1ccc(C[n+]2cc(-c3ccc(Cl)cc3)n3c2CCC3)cc1.[Cl-]
> 55.4	O=C(CSc1nc2ccccc2c(=O)n1-c1ccccc1F)NC1CC1
47.8 (≈ 128 µM)	NS(=O)(=O)c1ccc(S(=O)(=O)N2CCN(C3CCCC3)CC2)cc1
9.2 (≈ 31.1 µM)	O=C(NCc1ccccn1)Nc1ccc(Cl)cc1Cl
18.7 (≈ 61.2 µM)	COc1ccccc1C(=O)NC(C)c1cccc2ccccc12 (configuration not stated)

solubility kinetic [µg/mL]	Structure (SMILES)
1.8 (≈ 3.75 µM)	CC(=O)c1ccccc1NC(=O)CSc1nc2ccccc2c(=O)n1CCCN1CCOCC1
3.1 (≈ 11.6 µM)	Cc1ccc2c(N)c(C(=O)c3ccccc3)sc2n1
< 0.2	COc1ccc2nc(SC)c(C#N)cc2c1
> 41.7	O=C(O)Cn1nc(-c2ccccc2)cc1-c1ccccc1
11.3 (≈ 22.7 µM)	O=C(c1ccc(Cl)c(S(=O)(=O)N2CCc3ccccc32)c1)N1CCN(c2ccccc2O)CC1
> 33.5	CCC(CC)C(=O)c1c[nH]c(C(=O)OC)c1
32.9 (≈ 136 µM)	O=CN1c2ccccc2CSc2ccccc21
37.8 (≈ 121 µM)	Cc1ccc(NC(/C=C/N(C)C)=C/C(=O)C(F)(F)F)c(C)c1
> 47.8	Cc1ccc(S(=O)(=O)NC(=O)c2cccc(N(C)C)c2)cc1
> 59.5	C[C@H](NC(=O)c1ccco1)C(=O)N1CCN(c2ccc(C(F)(F)F)cn2)CC1
> 34.7	CC1CCN(C(=O)CSCC(=O)O)CC1
> 47.1	COc1cc(Br)c(CC(=O)NC2CC2)cc1OC
7.8 (≈ 16.9 µM)	COc1ccc(CNC(=O)COC(=O)c2ccc(C)c(S(=O)(=O)N3CCOCC3)c2)cc1
47.3 (≈ 150 µM)	COc1cccc(CC(=O)NCCCSc2ccccc2)c1
28.4 (≈ 131 µM)	O=[N+]([O-])c1ccc(Oc2ncccn2)cc1
39.3 (≈ 119 µM)	CC(C)CCN1CCN(Cc2cc3ccccc3[nH]2)CC1CCO (configuration not stated)
> 46.5	O=C(Nn1cnc2ccccc2c1=O)c1ccc([N+](=O)[O-])cc1
< 0.4	COc1ccc(C(=O)Nc2ccc(Nc3ccccc3)cc2)cc1Br
> 43.6	Cc1cc(CNC(=O)Cc2ccccc2)c2ccccc2n1
> 42.9	Cc1ccc(CONC(=O)c2cccc([N+](=O)[O-])c2)cc1
> 47.9	CN(C)CCNS(=O)(=O)c1ccc2c3c(cccc13)C(=O)N2
2.4 (≈ 7.92 µM)	Brc1ccc(OCc2nc3ccccc3[nH]2)cc1
27.2 (≈ 120 µM)	CC(NCc1ccccc1)c1ccccc1O (configuration not stated)
